Data as given in patent publication US6352966B1, “Cleansing bars” (Albemarle Corporation, priority 2000, dated 2002).

Tests used:
Type in all cases: physicochemical
[1] = Surface tension in ionic buffer solution; conditions: 0.02 normal aqueous potassium nitrate solution at 25° C.
Source text: Also shown in Table 1 are the corresponding values for the partially neutralized monosodium salts of the corresponding alk(en)yl succinic acids.

[2] = Reflectance of cleansing bars; conditions: bar; the higher the reflectance the whiter the bar
Experimental: (§1) The desirable properties of cleansing bars formed from fully neutralized sodium salts of various alkenyl succinic acids of this invention were determined in a further series of comparative tests. In these tests both the reflectance and the bar hardness were determined. In addition to testing bars of five different fully neutralized succinate salts of this invention, the same properties were measured on four fully compounded commercial soap bars from different well-known soap manufacturers. As can be appreciated, the higher the reflectance the whiter the bar, and the higher the hardness, the more desirable is the bar. In Table 2, the five fully neutralized alkenyl succinic acids are identified in terms of the number of carbon atoms in the alkenyl group. Thus, for example, C6 SAS represents the fully neutralized disodium salt of n-hexenyl succinic acid. As regards reflectance, Commercial Bar B is pink in color, and Commercial Bar C is a coral-orange in color. The other two commercial bars are white.

[3] = Bar hardness of cleansing bars; conditions: the higher the hardness, the more desirable
Experimental: as §1

| Molecule | surface tension [1] [millinewtons per meter] | Reflectance [2] | Bar Hardness [3] |
| --- | --- | --- | --- |
| CCCCCCCCCCC(CC(=O)[O-])C(=O)[O-].[Na+].[Na+] (stereo not drawn) [Disodium n-decylsuccinate] | 26 | – | – |
| CCCCCCCCC(CC(=O)[O-])C(=O)[O-].[Na+].[Na+] (stereo not drawn) [Disodium n-octylsuccinate] | 26 | – | – |
| Disodium n-dodecenylsuccinate | 25.8 | 87 | 132 |
| Disodium n-tetradecenylsuccinate | 26 | 74 | 144 |
| Monosodium n-dodecenylsuccinate [reference compound] | 26.32 | – | – |

More lines, main results first:

| surface tension [1] [millinewtons per meter] | Molecule | Reflectance [2] | Bar Hardness [3] |
| --- | --- | --- | --- |
| 26.32 | CCCCCCCCCCC(CC(=O)O)C(=O)[O-].[Na+] (stereo not drawn) [Monosodium n-decylsuccinate, reference compound] | – | – |
| 26.64 | CCCCCCCCC(CC(=O)O)C(=O)[O-].[Na+] (stereo not drawn) [Monosodium n-octylsuccinate, reference compound] | – | – |
| 26 | Monosodium n-tetradecenylsuccinate [reference compound] | – | – |
